Biological target: Rho-associated protein kinase 2 (Homo sapiens, UniProt O75116)
Assay: Biological Assay: The kinase IC50 was determined by a commercialized CISBIO kinase detection kit, HTRF KinEASE-STK S2 kit (62ST2PEC). ROCK2 (01-119) employed in the reaction was purchased from Carna Biosciences.Before the assay, the following working solutions as needed were formulated with corresponding reagents according to the instruction of the kinase detection kit: 1×kinase buffer, 5×STK-52 substrate working solution (1.5 μM) and 5×ATP working solution (1.5 μM), 5×ROCK2 kinase working solution, 4×Streptavidin-XL665 working solution, and 4×STK-Ab-Cryptate 2 detection solution. Then the assay was performed according to the following procedure.A solution of a compound at a concentration of 10000 nM was prepared with the 1×kinase buffer containing 2.5% DMSO. Gradient dilution of the solution of the compound was performed with the kinase buffer containing DMSO, so as to obtain solutions of a test compound at 9 different concentrations. In addition to wells of test compounds, a positive well (containing all the reagents except the compound) and a negative well (containing all the reagents except the test compound and kinase) were set. Except for the control wells (positive and negative wells), a solution of a test compound (4 μL) was added to each of the reaction wells, and a solution of 2.5% DMSO was added to the control wells. […]

Rho-associated protein kinase 2, sequence (O75116 whole entry): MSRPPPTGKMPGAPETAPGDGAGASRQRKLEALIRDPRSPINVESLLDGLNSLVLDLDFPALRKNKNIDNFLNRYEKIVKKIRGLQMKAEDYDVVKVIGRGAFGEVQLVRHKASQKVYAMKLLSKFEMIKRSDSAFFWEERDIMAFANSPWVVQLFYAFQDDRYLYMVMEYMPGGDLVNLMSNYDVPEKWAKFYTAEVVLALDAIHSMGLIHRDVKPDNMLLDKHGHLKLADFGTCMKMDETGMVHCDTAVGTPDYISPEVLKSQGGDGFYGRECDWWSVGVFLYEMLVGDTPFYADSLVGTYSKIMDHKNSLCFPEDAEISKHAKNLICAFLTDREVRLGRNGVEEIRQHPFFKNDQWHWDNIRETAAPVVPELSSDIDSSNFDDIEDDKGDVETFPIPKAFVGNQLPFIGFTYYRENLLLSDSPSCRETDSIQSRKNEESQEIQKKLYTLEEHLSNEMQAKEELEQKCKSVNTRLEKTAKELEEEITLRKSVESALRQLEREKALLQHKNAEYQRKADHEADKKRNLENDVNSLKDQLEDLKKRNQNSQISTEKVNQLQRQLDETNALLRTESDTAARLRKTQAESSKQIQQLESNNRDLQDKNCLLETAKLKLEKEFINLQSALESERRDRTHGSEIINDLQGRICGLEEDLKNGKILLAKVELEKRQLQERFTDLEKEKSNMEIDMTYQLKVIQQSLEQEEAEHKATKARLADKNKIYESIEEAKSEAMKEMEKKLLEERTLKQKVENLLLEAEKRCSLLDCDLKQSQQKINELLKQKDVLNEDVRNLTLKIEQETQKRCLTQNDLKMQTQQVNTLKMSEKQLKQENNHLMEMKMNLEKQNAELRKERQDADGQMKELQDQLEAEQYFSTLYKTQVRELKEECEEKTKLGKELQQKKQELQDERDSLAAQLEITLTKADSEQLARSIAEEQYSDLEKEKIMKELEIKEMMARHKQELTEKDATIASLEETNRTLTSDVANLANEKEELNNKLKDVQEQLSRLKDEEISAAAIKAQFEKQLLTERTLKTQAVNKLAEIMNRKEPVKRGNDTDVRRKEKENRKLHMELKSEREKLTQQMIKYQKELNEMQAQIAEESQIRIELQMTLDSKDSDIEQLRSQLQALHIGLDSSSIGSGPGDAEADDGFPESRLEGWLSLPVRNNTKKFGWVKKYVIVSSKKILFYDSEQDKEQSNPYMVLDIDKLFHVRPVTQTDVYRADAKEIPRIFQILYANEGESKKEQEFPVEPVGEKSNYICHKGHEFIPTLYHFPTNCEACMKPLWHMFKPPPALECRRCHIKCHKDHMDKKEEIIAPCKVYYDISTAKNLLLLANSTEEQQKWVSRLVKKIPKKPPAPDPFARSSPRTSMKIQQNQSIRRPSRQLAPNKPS

IC50: 71 nM
SMILES: O=C(Nc1ccc(-c2cn[nH]c2)cc1)c1cc2ccc(-c3nccc(Nc4ccc5[nH]ncc5c4)n3)cc2[nH]1

Source: ChEMBL document CHEMBL5727158, “Rho-associated protein kinase inhibitor, pharmaceutical composition comprising the same, as well as preparation method and use thereof” (2019)
